Experimental data reported in patent publication US20230066011A1, “PYRROLOPYRIMIDINE DERIVATIVE, AND PHARMACEUTICAL COMPOSITION FOR PREVENTING OR TREATING PROTEIN KINASE-RELATED DISEASE COMPRISING SAME AS ACTIVE INGREDIENT” (VORONOI CO., LTD., priority 2019, published 2023).

Columns and labels:
Assay type in all cases: biochemical
human GST-DYRK1A = target: T1, human GST-DYRK1A (Homo sapiens, UniProt Q13627); experiment: GST-DYRK1A enzyme inhibition, ADP-Glo kinase assay; conditions: ATP 10 μM, GST-DYRK1A full length, read-out: DYRK1 IC50
T1 construct: purified human GST-DYRK1A (full length, Thermo Scientifics) enzyme; purchased Thermo Scientifics
How it was run: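 Full-length human GST-DYRK1A (10 ng) with 10 μM ATP and specific substrate in 40 mM Tris-HCl pH 7.4, 20 mM MgCl2, 0.5 mg/mL BSA, 50 μM DTT, 1 h at 25 °C. ADP formation read by ADP-Glo luminescence relative to solvent control; IC50 from three data sets.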

LRRK2 (G2019S) = LRRK2 (G2019S) (Homo sapiens, UniProt Q5S007, G2019S); experiment: LRRK2 G2019S enzyme inhibition, ADP-Glo kinase assay; parameters: purchased SignalChem L10-12GG; conditions: ATP 25 μM
LRRK2 (G2019S), sequence (Q5S007 970-2527 G2019S limits assumed): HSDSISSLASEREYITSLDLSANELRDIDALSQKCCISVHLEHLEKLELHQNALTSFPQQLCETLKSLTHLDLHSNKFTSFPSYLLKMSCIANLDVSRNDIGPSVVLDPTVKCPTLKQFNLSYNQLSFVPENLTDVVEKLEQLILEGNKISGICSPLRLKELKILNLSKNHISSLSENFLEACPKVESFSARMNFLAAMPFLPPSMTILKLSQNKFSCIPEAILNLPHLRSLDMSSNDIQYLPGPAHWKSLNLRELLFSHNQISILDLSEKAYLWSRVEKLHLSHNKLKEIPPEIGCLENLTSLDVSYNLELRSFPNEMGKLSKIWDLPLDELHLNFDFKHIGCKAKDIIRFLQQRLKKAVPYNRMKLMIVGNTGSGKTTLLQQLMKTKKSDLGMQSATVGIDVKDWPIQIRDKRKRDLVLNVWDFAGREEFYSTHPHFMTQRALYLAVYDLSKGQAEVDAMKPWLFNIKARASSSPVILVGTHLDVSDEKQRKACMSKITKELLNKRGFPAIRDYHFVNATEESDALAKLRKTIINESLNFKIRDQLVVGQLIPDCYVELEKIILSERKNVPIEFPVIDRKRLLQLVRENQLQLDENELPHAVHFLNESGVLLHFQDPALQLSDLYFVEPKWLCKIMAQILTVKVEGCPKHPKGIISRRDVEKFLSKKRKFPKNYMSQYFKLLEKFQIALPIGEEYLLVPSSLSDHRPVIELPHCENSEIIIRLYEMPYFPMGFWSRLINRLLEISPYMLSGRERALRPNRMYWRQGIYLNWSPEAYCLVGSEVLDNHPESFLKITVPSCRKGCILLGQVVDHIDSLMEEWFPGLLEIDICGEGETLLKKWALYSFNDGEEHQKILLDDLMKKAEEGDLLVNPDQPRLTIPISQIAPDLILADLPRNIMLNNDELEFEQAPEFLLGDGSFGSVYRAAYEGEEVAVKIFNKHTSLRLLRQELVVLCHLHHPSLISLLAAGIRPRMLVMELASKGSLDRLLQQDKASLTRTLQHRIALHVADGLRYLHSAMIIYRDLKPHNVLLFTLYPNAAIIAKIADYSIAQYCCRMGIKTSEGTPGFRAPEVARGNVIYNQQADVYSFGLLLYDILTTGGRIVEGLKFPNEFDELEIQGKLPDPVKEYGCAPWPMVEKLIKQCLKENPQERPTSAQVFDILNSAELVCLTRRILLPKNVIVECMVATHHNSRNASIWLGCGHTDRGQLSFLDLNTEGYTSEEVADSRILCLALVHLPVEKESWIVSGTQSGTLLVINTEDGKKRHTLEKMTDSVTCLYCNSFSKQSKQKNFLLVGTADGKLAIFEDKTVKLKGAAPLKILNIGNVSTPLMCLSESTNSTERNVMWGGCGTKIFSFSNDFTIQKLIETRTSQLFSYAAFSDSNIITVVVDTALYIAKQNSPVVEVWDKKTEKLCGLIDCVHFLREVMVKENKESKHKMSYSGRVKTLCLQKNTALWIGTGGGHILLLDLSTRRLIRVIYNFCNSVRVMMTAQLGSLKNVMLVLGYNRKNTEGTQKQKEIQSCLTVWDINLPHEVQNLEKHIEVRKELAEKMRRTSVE
Method: To evaluate an inhibitory activity of the compound according to the present invention against LRRK2, LRRK2 (G2019S), DYRK1, CLK1, and TTK kinases, experiments were performed as follows.
Each of the Example compounds was reacted with a purified human LRRK2 G2019S (L10-12GG, SignalChem) enzyme to evaluate an ability to inhibit an enzyme using a method as described below. A composition of 40 mM Tris-HCl (pH 7.4), 20 mM MgCl2, 0.5 mg/mL BSA, and 50 μM DTT was used as a reaction buffer, and all reactions of test substances were performed in the reaction buffer. Each of the compounds was diluted […] from a 10 mM DMSO stock using a serial dilution method, and enzyme activities were measured at final compound concentrations of 50, 10, 2, 0.4, 0.08, 0.016, 0.0032, 0.00064, 0.000128, 0.0000256, 0.00000512, and 0.000001024 μM. In the test, purified ATP (25 μM) and an enzyme substrate (0.2 μg) were reacted with a human LRRK2 G2019S (16 ng) enzyme at 25° C. for 2 hours, and the enzyme activities were then determined using an in vitro ADP-Glo™ kinase assay (Promega). An enzyme-activity reaction solution, an ADP-Glo reaction solution, and an enzyme-ability detection solution were reacted at a ratio of 2:2:1 to measure a degree of inhibition of the enzyme activity with luminescence. The degree of inhibition of the enzyme activity according to the treatment concentration of each of the compounds was calculated based on the fluorescence of the enzyme activity of the solvent control which was not treated with the compound. In this case, the concentration of each of the compounds inhibiting 50% of the enzyme activity was determined to be an IC50 (nM) value, and calculated using Prism (Version 5.01; GraphPad) software.

human GST-CLK1 = target: T2, human GST-CLK1 (Homo sapiens, UniProt P49759); experiment: GST-CLK1 enzyme inhibition, ADP-Glo kinase assay; conditions: ATP 10 μM, GST-CLK1 129-end
T2 construct: purified human GST-CLK1 (129-end, SignalChem) enzyme; purchased SignalChem
T2 sequence (P49759 129-484 limits assumed): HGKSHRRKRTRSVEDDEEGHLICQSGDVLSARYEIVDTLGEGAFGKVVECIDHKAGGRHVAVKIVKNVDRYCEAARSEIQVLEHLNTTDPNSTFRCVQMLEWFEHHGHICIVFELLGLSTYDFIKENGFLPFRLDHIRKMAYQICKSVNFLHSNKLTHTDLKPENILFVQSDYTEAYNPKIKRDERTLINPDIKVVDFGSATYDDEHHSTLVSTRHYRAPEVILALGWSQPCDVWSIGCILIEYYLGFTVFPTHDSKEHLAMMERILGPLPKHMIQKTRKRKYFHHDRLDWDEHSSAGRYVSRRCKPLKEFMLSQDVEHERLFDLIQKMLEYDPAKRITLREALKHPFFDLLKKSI
How it was run: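 Human GST-CLK1 (129-end, 3 ng) reacted with substrate and 10 μM ATP for 1 h at 25° C in 40 mM Tris-HCl pH 7.4, 20 mM MgCl2, 0.5 mg/mL BSA, 50 μM DTT. ADP-Glo luminescence was normalised to solvent control; IC50 (nM) from 3 data sets.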

| IC50 (human GST-DYRK1A) [nM] | IC50 (LRRK2 (G2019S)) [nM] | IC50 (human GST-CLK1) [nM] | SMILES |
| --- | --- | --- | --- |
| 301 to 1000 | < 100 | 301 to 1000 | COc1cc(S(=O)(=O)N2CCC(N3CCOCC3)CC2)ccc1Nc1nc(NC2CC2)c2cc[nH]c2n1 [Example 54, N^4-cyclopropyl-N^2-(2-methoxy-4-((4-morpholinopiperidin-1-yl)sulfonyl)phenyl)-7H-pyrrolo[2,3-d]pyrimidine-2,4-diamine] |
| 301 to 1000 | < 100 | 301 to 1000 | COc1cc(S(C)(=O)=O)ccc1Nc1nc(NC2CC2)c2cc[nH]c2n1 [Example 55, N^4-cyclopropyl-N^2-(2-methoxy-4-(methylsulfonyl)phenyl)-7H-pyrrolo[2,3-d]pyrimidine-2,4-diamine] |
| 301 to 1000 | < 100 | 301 to 1000 | O=C(c1ccc(Nc2nc(NC3CC3)c3cc[nH]c3n2)c2c1OCCO2)N1CCOCC1 [Example 56, (8-((4-(cyclopropylamino)-7H-pyrrolo[2,3-d]pyrimidin-2-yl)amino)-2,3-dihydrobenzo[b][1,4]dioxin-5-yl)(morpholino)methanone] |
| 301 to 1000 | < 100 | 301 to 1000 | COc1cc(S(=O)(=O)N2CCOCC2)ccc1Nc1nc(NC2CC2)c2cc[nH]c2n1 [Example 57, N^4-cyclopropyl-N^2-(2-methoxy-4-(morpholinosulfonyl)phenyl)-7H-pyrrolo[2,3-d]pyrimidine-2,4-diamine] |
| 301 to 1000 | < 100 | 301 to 1000 | CC[C@@H](C)Nc1nc(Nc2ccc(S(=O)(=O)N3CCOCC3)cc2OC)nc2[nH]ccc12 [Example 59, (R)-N^4-(sec-butyl)-N^2-(2-methoxy-4-(morpholinosulfonyl)phenyl)-7H-pyrrolo[2,3-d]pyrimidine-2,4-diamine] |
| 301 to 1000 | 101 to 300 | 301 to 1000 | CC[C@H](C)Nc1nc(Nc2ccc(S(=O)(=O)N3CCOCC3)cc2OC)nc2[nH]ccc12 [Example 60, (S)-N^4-(sec-butyl)-N^2-(2-methoxy-4-(morpholinosulfonyl)phenyl)-7H-pyrrolo[2,3-d]pyrimidine-2,4-diamine] |
| 301 to 1000 | < 100 | 301 to 1000 | COc1cc(S(=O)(=O)N2CCOCC2)ccc1Nc1nc(NC2CCOCC2)c2c(C#N)c[nH]c2n1 [Example 76, 2-((2-methoxy-4-(morpholinosulfonyl)phenyl)amino)-4-((tetrahydro-2H-pyran-4-yl)amino)-7H-pyrrolo[2,3-d]pyrimidine-5-carbonitrile] |
| 301 to 1000 | < 100 | 301 to 1000 | COc1cc(S(C)(=O)=O)ccc1Nc1nc(NCC(C)C)c2c(C#N)c[nH]c2n1 [Example 100, 4-(isobutylamino)-2-((2-methoxy-4-(methylsulfonyl)phenyl)amino)-7H-pyrrolo[2,3-d]pyrimidine-5-carbonitrile] |
| 301 to 1000 | < 100 | 301 to 1000 | COc1cc(S(C)(=O)=O)ccc1Nc1nc(NCC2CC2)c2c(C#N)c[nH]c2n1 [Example 110, 4-((cyclopropylmethyl)amino)-2-((2-methoxy-4-(methylsulfonyl)phenyl)amino)-7H-pyrrolo[2,3-d]pyrimidine-5-carbonitrile] |
| 301 to 1000 | < 100 | 101 to 300 | CC(C)CNc1nc(Nc2ccc(C(=O)N3CCOCC3)c3c2OCCO3)nc2[nH]cc(C#N)c12 [Example 121, 4-(isobutylamino)-2-((8-(morpholine-4-carbonyl)-2,3-dihydrobenzo[b][1,4]dioxin-5-yl)amino)-7H-pyrrolo[2,3-d]pyrimidine-5-carbonitrile] |
| < 100 | < 100 | < 100 | CCNc1nc(Nc2ccc(P3(=O)CCN(Cc4ccc(OC)cc4OC)CC3)cn2)nc2[nH]cc(C(F)(F)F)c12 [Example 153, 1-(2,4-dimethoxybenzyl)-4-(6-((4-(ethylamino)-5-(trifluoromethyl)-7H-pyrrolo[2,3-d]pyrimidin-2-yl)amino)pyridin-3-yl)-1,4-azaphosphinane 4-oxide] |
| 301 to 1000 | < 100 | < 100 | O=C(c1ccc(Nc2nc(N[C@H]3CCOC3)c3c(C(F)(F)F)c[nH]c3n2)c2c1OCCO2)N1CCOCC1 [Example 209, (S)-morpholino(8-((4-((tetrahydrofuran-3-yl)amino)-5-(trifluoromethyl)-7H-pyrrolo[2,3-d]pyrimidin-2-yl)amino)-2,3-dihydrobenzo[b][1,4]dioxin-5-yl)methanone] |
| 301 to 1000 | < 100 | 301 to 1000 | COc1cc(S(C)(=O)=O)ccc1Nc1nc(N[C@@H]2CCOC2)c2c(C(F)(F)F)c[nH]c2n1 [Example 210, (R)-N^2-(2-methoxy-4-(methylsulfonyl)phenyl)-N^4-(tetrahydrofuran-3-yl)-5-(trifluoromethyl)-7H-pyrrolo[2,3-d]pyrimidine-2,4-diamine] |
| 101 to 300 | < 100 | 101 to 300 | CNc1nc(Nc2ccc(P3(=O)CCN(C4CC4)CC3)cc2OC)nc2[nH]cc(C(F)(F)F)c12 [Example 216, 1-cyclopropyl-4-(3-methoxy-4-((4-(methylamino)-5-(trifluoromethyl)-7H-pyrrolo[2,3-d]pyrimidin-2-y)amino)phenyl)-1,4-azaphosphinane 4-oxide] |
| 301 to 1000 | < 100 | 301 to 1000 | N#Cc1c[nH]c2nc(Nc3ccc(C(=O)N4CCOCC4)c4c3OCCO4)nc(NC3CCCCC3)c12 [Example 248] |
| < 100 | < 100 | < 100 | COc1cc(P2(=O)CCN(C3COC3)CC2)ccc1Nc1nc(NC2CCC2)c2c(C#N)c[nH]c2n1 [Example 288, 4-(cyclo-butylamino)-2-((2-methoxy-4-(1-(oxetan-3-yl)-4-oxido-1,4-azaphosphinan-4-yl)phenyl)amino)-7H-pyrrolo[2,3-d]pyrimidine-5-carbonitrile] |
| 301 to 1000 | < 100 | < 100 | N#Cc1c[nH]c2nc(Nc3ccc(C(=O)N4CCN(C5COC5)CC4)c4c3OCCO4)nc(NC3CCC3)c12 [Example 289, 4-(cyclo-butylamino)-2-((8-(4-(oxetan-3-yl)piperazine-1-carbonyl)-2,3-dihydrobenzo[b] [1,4]dioxin-5-yl)amino)-7H-pyrrolo[2,3-d]pyrimidine-5-carbonitrile] |
| 301 to 1000 | < 100 | 301 to 1000 | COc1cc(P2(=O)CCN(C3COC3)CC2)ccc1Nc1nc(NCCS(C)(=O)=O)c2c(C#N)c[nH]c2n1 [Example 314, 2-((2-methoxy-4-(1-(oxetan-3-yl)-4-oxido-1,4-azaphosphinan-4-yl)phenyl)amino)-4-((2-(methyl-sulfonyl)eth-yl)amino)-7H-pyrrolo[2,3-d]pyrimidine-5-carbonitrile] |
| 301 to 1000 | 101 to 300 | < 100 | N#Cc1c[nH]c2nc(Nc3ccc(C(=O)N4CC(CO)(CO)C4)c4c3OCCO4)nc(NC3CC3)c12 [Example 332, 2-((8-(3,3-bis (hydroxymethyl)azetidine-1-carbonyl)-2,3-dihydrobenzo[b] [1,4]dioxin-5-yl)amino)-4-(cyclopropyl-amino)-7H-pyrrolo[2,3-d]pyrimidine-5-carbonitrile] |
| 301 to 1000 | < 100 | < 100 | CS(=O)(=O)CCNc1nc(Nc2ccc(C(=O)N3CCC(N4CCOCC4)CC3)c3c2OCC3)nc2[nH]cc(C#N)c12 [Example 345, 4-((2-(methyl-sulfonyl)eth-yl)amino)-2-((4-(4-morpholino-piperidine-1-carbonyl)-2,3-dihydro-benzofuran-7-yl)amino)-7H-pyrrolo[2,3-d]pyrimidine-5-carbonitrile] |
| < 100 | < 100 | < 100 | CC(C)Nc1nc(Nc2ccc(C(=O)N3CCC(N4CCOCC4)CC3)c3c2OCC3)nc2[nH]cc(C#N)c12 [Example 353, 4-(isopropylamino)-2-((4-(4-morpholino-piperidine-1-carbonyl)-2,3-dihydro-benzofuran-7-yl)amino)-7H-pyrrolo[2,3-d]pyrimidine-5-carbonitrile] |
